# Laboratory results: patent US10538554B2, “Peptides and uses therefor as antiviral agents” (priority 2015, dated 2020)
# Where two headings read alike, the source gives them in different places. Bridge positions count the residues as written; N and C are the ends. Square brackets hold non-standard residues; d marks the D form. Peptide text beside a SMILES is read from it.
# Key:
# [1] = tested on: H9N2 A/Iran/16/2000; conditions: 48 h
# [2] = tested on: avian influenza A virus H9N2; conditions: cited from earlier work
# [3] = tested on: H1N1 A/PR/8/1934; assay: microbe, parasite or virus in culture; conditions: Influenza A virus, MDCK, read-out: IC50 PR8
# [4] = tested on: H3N2 A/HK/8/1968; conditions: A/HK/8/1968, 48 h
# [5] = tested on: H5N1 A/Kampung pasir/5744/2004; conditions: A/Kampung pasir/5744/2004, 48 h
# [6] = tested on: H1N1 A/NY/18/2009; conditions: A/NY/18/2009, 48 h; for % Inhibition Pdm 2009: 10 μM
# [7] = tested on: H1N1 A/PR/8/1934; conditions: A/PR/8/1934, 48 h; for % Inhibition PR/8: 10 μM; for % Inhibition: 1 μM
# [8] = tested on: H3N8 A/Miami/2/63; conditions: A/Miami/2/63, 48 h
# [9] = tested on: H1N1 A1/Malaysia/302/1954; conditions: A1/Malaysia/302/1954, 48 h
# [10] = tested on: Influenza B/MALAYSIA/2506/04
smiles,measurement,setting,value
"C[C@@H](O)[C@@H]1NC(=O)[C@H](CCCCN)NC(=O)[C@H](CO)NC(=O)[C@H](CCCNC(=N)N)NC(=O)[C@H](Cc2ccccc2)NC(=O)[C@H](CC(=O)O)NC(=O)[C@H](CC(N)=O)NC(=O)[C@@H](N)CSSC[C@@H](C(=O)O)NC1=O [C-P1, H-CNDFRSKTC-OH, reference compound] (H-CNDFRSKTC-OH; disulfide 1-9)",IC50,[1],> 320000 nM
same,inhibition of avian influenza A virus H9N2 replication,[2],modest efficacy
CCC(CC)O[C@@H]1C=C(C(=O)O)C[C@H](N)[C@H]1NC(C)=O [Oseltamivir acid],IC50,[3],140 nM
"CC[C@@H](C)[C@H]1NC(=O)[C@@H](Cc2ccccc2)NC(=O)[C@@H](CCCNC(=N)N)NC(=O)[C@@H](Cc2ccccc2)NC(=O)[C@@H](Cc2c[nH]c3ccccc23)NC(=O)[C@@H]([C@H](C)O)NC(=O)[C@H](NC(=O)[C@H](CCCCN)NC(=O)[C@H](CCCCN)NC(=O)[C@H](CCCNC(=N)N)NC(=O)[C@@H](N)CCCNC(=N)N)CSSC[C@H](C(=O)O)NC(=O)[C@@H](CC(N)=O)NC1=O [PSP III B5, H-RRKKctwfrfinc-OH] (H-RRKK[dC][dT][dW][dF][dR][dF][dI][dN][dC]-OH; disulfide 5-13)",IC50,[1],900 nM
same,% inhibition H9N2,[1]; 10 μM,76%
same,% inhibition H9N2,[1]; 50 μM,90%
same,IC50,[4],1400 nM
same,% inhibition H3N2,[4]; 10 μM,87%
same,% inhibition H3N2,[4]; 50 μM,100%
same,IC50,[5],220 nM
same,IC50,[6],1170 nM
same,% Inhibition Pdm 2009,[6],73%
same,IC50,[7],1200 nM
same,% Inhibition PR/8,[7],88%
same,IC50,[8],150 nM
same,% inhibition H3N8,[8]; 10 μM,92%
same,% inhibition H3N8,[8]; 50 μM,100%
same,IC50,[9],1600 nM
same,% inhibition H1N1,[9]; 10 μM,80%
same,% inhibition H1N1,[9]; 50 μM,96%
"CC[C@@H](C)[C@H]1NC(=O)[C@@H](Cc2ccccc2)NC(=O)[C@@H](Cc2ccccc2)NC(=O)[C@@H](Cc2ccccc2)NC(=O)[C@@H](Cc2c[nH]c3ccccc23)NC(=O)[C@@H]([C@H](C)O)NC(=O)[C@H](NC(=O)[C@H](CCCCN)NC(=O)[C@H](CCCCN)NC(=O)[C@H](CCCNC(=N)N)NC(=O)[C@@H](N)CCCNC(=N)N)CSSC[C@H](C(=O)O)NC(=O)[C@@H](CC(N)=O)NC1=O [PSP IV A5, H-RRKKctwfffinc-OH] (H-RRKK[dC][dT][dW][dF][dF][dF][dI][dN][dC]-OH; disulfide 5-13)",IC50,[1],760 nM
same,% inhibition H9N2,[1]; 10 μM,93%
same,IC50,[4],300 nM
same,% inhibition H3N2,[4]; 10 μM,99%
same,IC50,[5],550 nM
same,IC50,[6],1000 nM
same,% Inhibition Pdm 2009,[6],98%
same,IC50,[7],400 nM
same,% Inhibition PR/8,[7],99%
same,IC50,[8],300 nM
same,% inhibition H3N8,[8]; 10 μM,98%
same,IC50,[9],300 nM
same,% inhibition H1N1,[9]; 10 μM,99%
"CC[C@@H](C)[C@H]1NC(=O)[C@@H](Cc2ccccc2)NC(=O)[C@@H]([C@H](C)O)NC(=O)[C@@H](Cc2ccccc2)NC(=O)[C@@H](Cc2c[nH]c3ccccc23)NC(=O)[C@@H]([C@H](C)O)NC(=O)[C@H](NC(=O)[C@H](CCCCN)NC(=O)[C@H](CCCCN)NC(=O)[C@H](CCCNC(=N)N)NC(=O)[C@@H](N)CCCNC(=N)N)CSSC[C@H](C(=O)O)NC(=O)[C@@H](CC(N)=O)NC1=O [PSP IV A17, H-RRKKctwftfinc-OH] (H-RRKK[dC][dT][dW][dF][dT][dF][dI][dN][dC]-OH; disulfide 5-13)",IC50,[10],990 nM
same,% inhibition H9N2,[1]; 10 μM,92%
same,IC50,[4],56 nM
same,% inhibition H3N2,[4]; 10 μM,97%
same,IC50,[6],33 nM
same,% Inhibition Pdm 2009,[6],97%
same,IC50,[7],260 nM
same,% Inhibition,[7],<20%
same,% Inhibition PR/8,[7],97%
same,% inhibition H3N8,[8]; 10 μM,97%
same,IC50,[9],51 nM
same,% inhibition H1N1,[9]; 10 μM,91%
"CC[C@@H](C)[C@H]1NC(=O)[C@@H](Cc2ccccc2)NC(=O)[C@@H](Cc2c[nH]c3ccccc23)NC(=O)[C@@H](Cc2ccccc2)NC(=O)[C@@H](Cc2c[nH]c3ccccc23)NC(=O)[C@@H]([C@H](C)O)NC(=O)[C@H](NC(=O)[C@H](CCCCN)NC(=O)[C@H](CCCCN)NC(=O)[C@H](CCCNC(=N)N)NC(=O)[C@@H](N)CCCNC(=N)N)CSSC[C@H](C(=O)O)NC(=O)[C@@H](CC(N)=O)NC1=O [PSP IV A19, H-RRKKctwfwfinc-OH] (H-RRKK[dC][dT][dW][dF][dW][dF][dI][dN][dC]-OH; disulfide 5-13)",% inhibition H9N2,[1]; 10 μM,95%
same,% inhibition H3N2,[4]; 10 μM,94%
same,% Inhibition Pdm 2009,[6],94%
same,% Inhibition PR/8,[7],90%
same,% inhibition H3N8,[8]; 10 μM,94%
same,% inhibition H1N1,[9]; 10 μM,87%
"CC[C@@H](C)[C@H]1NC(=O)[C@@H](Cc2ccccc2)NC(=O)[C@@H](Cc2ccc(O)cc2)NC(=O)[C@@H](Cc2ccccc2)NC(=O)[C@@H](Cc2c[nH]c3ccccc23)NC(=O)[C@@H]([C@H](C)O)NC(=O)[C@H](NC(=O)[C@H](CCCCN)NC(=O)[C@H](CCCCN)NC(=O)[C@H](CCCNC(=N)N)NC(=O)[C@@H](N)CCCNC(=N)N)CSSC[C@H](C(=O)O)NC(=O)[C@@H](CC(N)=O)NC1=O [PSP IV A20, H-RRKKctwfyfinc-OH] (H-RRKK[dC][dT][dW][dF][dY][dF][dI][dN][dC]-OH; disulfide 5-13)",% inhibition H9N2,[1]; 10 μM,85%
same,% inhibition H3N2,[4]; 10 μM,89%
same,% Inhibition Pdm 2009,[6],79%
same,% Inhibition PR/8,[7],85%
same,% inhibition H3N8,[8]; 10 μM,89%
same,% inhibition H1N1,[9]; 10 μM,79%
"CC[C@@H](C)[C@H]1NC(=O)[C@@H](Cc2ccccc2)NC(=O)[C@@H]([C@H](C)O)NC(=O)[C@@H](Cc2ccccc2)NC(=O)[C@@H](Cc2c[nH]c3ccccc23)NC(=O)[C@@H](Cc2c[nH]c3ccccc23)NC(=O)[C@H](NC(=O)[C@H](CCCCN)NC(=O)[C@H](CCCCN)NC(=O)[C@H](CCCNC(=N)N)NC(=O)[C@@H](N)CCCNC(=N)N)CSSC[C@H](C(=O)O)NC(=O)[C@@H](C)NC1=O [PSP VI A1, H-RRKKcwwftfiac-OH] (H-RRKK[dC][dW][dW][dF][dT][dF][dI][dA][dC]-OH; disulfide 5-13)",IC50,[10],1.2 nM
same,IC50,[1],10.4 nM
same,IC50,[4],1.9 nM
same,IC50,[6],0.13 nM
same,IC50,[7],4 nM
same,% Inhibition,[7],98.5%
same,IC50,[8],2 nM
same,IC50,[9],5 nM
